Where two headings read alike, the source gives them in different places.
Test: In vivo metabolism of [14C]COMPOUND I in Sprague-Dawley rats, single oral 5 mg/kg dose
Design: species or system rat
Settings: for Chromatographic Distribution of Radioactivity in Pooled Plasma Samples: 5 mg/kg oral [14C]COMPOUND I; for percent of total brain radioactivity: pooled brain
[1] = female, Sprague-Dawley, rat, brain and plasma, po, 5 mg/kg, read-out: Brain/Plasma COMPOUND I Ratio
[2] = male, Sprague-Dawley, rat, brain and plasma, po, 5 mg/kg, read-out: Brain/Plasma COMPOUND I Ratio

SMILES: COc1cc(N2CCN(C3CCN(c4ccc(F)c5cccnc45)CC3)CC2)c2ncccc2c1 [COMPOUND I, 5-Fluoro-8-{4-[4-(6-methoxyquinolin-8-yl)piperazin-1-yl]piperidin-1-yl}quinoline]
- Kp (Sprague-Dawley, rat, brain and plasma, rats, 5 mg/kg oral, read-out: brain-to-plasma ratios of COMPOUND I concentrations): 0.47 to 0.85
- concentration at 1 hr (Sprague-Dawley, rat, female rats, 1 hr, 5 mg/kg oral, mean brain radioactivity x percentage of COMPOUND I in pooled sample, read-out: Brain COMPOUND I Concentrations): 106 ng/g
- concentration at 3 hr (Sprague-Dawley, rat, female rats, 3 hr, 5 mg/kg oral, mean brain radioactivity x percentage of COMPOUND I in pooled sample, read-out: Brain COMPOUND I Concentrations): 34.7 ng/g
- concentration at 1 hr (Sprague-Dawley, rat, male rats, 1 hr, 5 mg/kg oral, mean brain radioactivity x percentage of COMPOUND I in pooled sample, read-out: Brain COMPOUND I Concentrations): 40.9 ng/g
- concentration at 3 hr (Sprague-Dawley, rat, male rats, 3 hr, 5 mg/kg oral, mean brain radioactivity x percentage of COMPOUND I in pooled sample, read-out: Brain COMPOUND I Concentrations): 15.9 ng/g
- concentration at 6 hr (Sprague-Dawley, rat, male rats, 6 hr, 5 mg/kg oral, mean brain radioactivity x percentage of COMPOUND I in pooled sample, read-out: Brain COMPOUND I Concentrations): 10 ng/g
- Chromatographic Distribution of Radioactivity in Pooled Plasma Samples (female rats, 1 hr): 16.4%
- percent of total brain radioactivity (female rats, 1 hr, 5 mg/kg oral): 79.5%
- Chromatographic Distribution of Radioactivity in Pooled Plasma Samples (female rats, 3 hr): 14.6%
- percent of total brain radioactivity (female rats, 3 hr, 5 mg/kg oral): 70.7%
- Kp at 1 h [1]: 0.77
- Kp at 3 h [1]: 0.58
- Chromatographic Distribution of Radioactivity in Pooled Plasma Samples (male rats, 1 hr): 16.9%
- percent of total brain radioactivity (male rats, 1 hr, 5 mg/kg oral): 80.3%
- Chromatographic Distribution of Radioactivity in Pooled Plasma Samples (male rats, 3 hr): 15.5%
- percent of total brain radioactivity (male rats, 3 hr, 5 mg/kg oral): 63.8%
- Chromatographic Distribution of Radioactivity in Pooled Plasma Samples (male rats, 6 hr): 8.7%
- percent of total brain radioactivity (male rats, 6 hr, 5 mg/kg oral): 60.5%
- percent of total plasma radioactivity (male rats, from 1 to 6 hr post-dose, 5 mg/kg oral): 8.7-16.9%
- percent of total radioactivity in the fecal extract (male rats, pooled 0-24 hr feces, 5 mg/kg oral): 8.1%
- Kp at 1 h [2]: 0.47
- Kp at 3 h [2]: 0.54
- Kp at 6 h [2]: 0.85
- Source (rats, 5 mg/kg oral, P, plasma, F, feces, B, brain): P, B, F
